Reference: patent US11840686B2, “Modulation of prekallikrein (PKK) expression” (Ionis Pharmaceuticals, Inc., priority 2013, dated 2023)
Values joined by “and” are separate entries in the source; they are usually repeats but may differ in a detail not shown here. Equal entries are not always repeated. Strand notation (5' to 3'): a small letter for the sugar, then the base; units joined by * are phosphorothioate-linked, units joined directly phosphodiester-linked; [ ] holds rarer units or linkages, { } end groups; capitals alone tell only the bases. e = 2'-O-(2-methoxyethyl) (MOE); k = constrained ethyl (cEt); [5mC] = 5-methylcytosine; d = 2'-deoxy (DNA)

Columns and labels:
[1] = test system: human PKK mRNA; assay: Antisense inhibition of human PKK mRNA in HepaRG cells, 1,000 nM, MOE/deoxy/cEt oligonucleotides (Example 3); assay type: cell-based
Summary of the method: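 HepaRG cells at 20,000 per well electroporated with 1,000 nM 16-mer MOE/cEt/deoxy gapmers (phosphorothioate, 5-methylcytosine). After about 24 h, PKK mRNA measured by qRT-PCR with primer probe set RTS3454, normalized to RIBOGREEN total RNA. Reported as percent inhibition versus untreated cells.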

[2] = test system: human PKK mRNA; assay: Dose-dependent antisense inhibition of human PKK in HepaRG cells, 0.11-3.00 uM (Example 6); assay type: cell-based; conditions: for IC50: 0.11-3.00 μM; for percent inhibition of PKK mRNA, 1.00 μM / percent inhibition of PKK mRNA, 3.00 μM / percent inhibition of PKK mRNA, 0.11 μM / percent inhibition of PKK mRNA, 0.33 μM: electroporation, approx. 16 hours, relative to untreated control cells
Protocol: Cells were plated at a density of 20,000 cells per well and transfected using electroporation with 0.11 μM, 0.33 μM, 1.00 μM, and 3.00 μM concentrations of antisense oligonucleotide. After a treatment period of approximately 16 hours, RNA was isolated from the cells and PKK mRNA levels were measured by quantitative real-time PCR. Human PKK primer probe set RTS3454 was used to measure mRNA levels. PKK mRNA levels were adjusted according to total RNA content, as measured by RIBOGREEN®. The antisense oligonucleotides were tested in a series of experiments that had similar culture conditions.
The half maximal inhibitory concentration (IC50) of each oligonucleotide is also presented.

[3] = HepaRG cells, 1,000 nM antisense oligonucleotide, Table 29
[4] = HepaRG cells, electroporation with 1,000 nM antisense oligonucleotide, approx. 24 hours, PKK mRNA by RT-PCR (RTS3454), relative to untreated control cells, Table 25 experiment
[5] = HepaRG cells, electroporation with 1,000 nM antisense oligonucleotide, approx. 24 hours, PKK mRNA by RT-PCR (RTS3454), relative to untreated control cells, Table 26 experiment
[6] = HepaRG cells, electroporation with 1,000 nM antisense oligonucleotide, approximately 24 hours, primer probe set RTS3454, relative to untreated control cells, experiment of Table 23
[7] = PKK mRNA, HepaRG cells, 1,000 nM antisense oligonucleotide, Table 31
[8] = Table 19, HepaRG cells, electroporation with 1,000 nM antisense oligonucleotide, approximately 24 hours, PKK mRNA by RT-PCR (RTS3454), relative to untreated control cells
[9] = Table 20, HepaRG cells, electroporation with 1,000 nM antisense oligonucleotide, approximately 24 hours, PKK mRNA by RT-PCR (RTS3454), relative to untreated control cells
[10] = Table 21 experiment, HepaRG cells, electroporation with 1,000 nM antisense oligonucleotide, approx. 24 hours, PKK mRNA by RT-PCR (RTS3454), relative to untreated control cells
[11] = Table 22 experiment, HepaRG cells, electroporation with 1,000 nM antisense oligonucleotide, approx. 24 hours, PKK mRNA by RT-PCR (RTS3454), relative to untreated control cells
[12] = Table 27, HepaRG cells, 1,000 nM antisense oligonucleotide, human PKK mRNA
[13] = Table 28, HepaRG cells, 1,000 nM antisense oligonucleotide, human PKK mRNA

Row | Substance | % inhibition [1, 3] | % inhibition [1, 4] | % inhibition [1, 5] | % inhibition [1, 6] | % inhibition ([1]; HepaRG cells, electroporation with 1,000 nM antisense oligonucleotide, approximately 24 hours, primer probe set RTS3454, relative to untreated control cells, experiment of Table 24) | % inhibition [1, 7] | % inhibition [1, 8] | % inhibition [1, 9] | % inhibition [1, 10] | % inhibition [1, 11] | % inhibition [1, 12] | % inhibition [1, 13] | % inhibition ([1]; Table 30, human PKK mRNA, HepaRG cells, 1,000 nM antisense oligonucleotide) | IC50 [2] | percent inhibition of PKK mRNA, 1.00 μM [2] | percent inhibition of PKK mRNA, 3.00 μM [2] | percent inhibition of PKK mRNA, 0.11 μM [2] | percent inhibition of PKK mRNA, 0.33 μM [2]
1 | 547747 (eT*e[5mC]*kA*d[5mC]*dT*dG*dT*dA*d[5mC]*dT*dA*dG*dT*kT*kT*e[5mC]) [compound 547747] | 64% | 66% | 80% | 83% | 80% | 88% | 95% | 84% | 88% | 91% | 67% | 64% | 64% | 400 nM and 300 nM and 500 nM | 81% and 90% and 72% and 85% | 89% and 92% and 90% and 96% | – | –
2 | 548570 (eA*eT*kG*d[5mC]*d[5mC]*dT*dT*dG*dT*dG*d[5mC]*d[5mC]*dT*kA*kT*eT; antisense) [compound 548570] | 74% | – | – | – | – | – | – | – | – | – | – | – | – | 400 nM | 70% | 94% | 20% | 40%
3 | 548667 (antisense eT*eG*kG*d[5mC]*dA*dA*dG*d[5mC]*dT*dA*d[5mC]*d[5mC]*dT*kT*k[5mC]*eT) [compound 548667] | – | – | – | – | – | 51% | – | – | – | – | – | – | – | 700 nM | 73% | 86% | 0% | 37%
4 | 548557 (antisense eG*eT*kT*dA*d[5mC]*dT*d[5mC]*dT*dG*dT*dG*dA*dT*k[5mC]*k[5mC]*eA) [compound 548557] | 81% | – | – | – | – | – | – | – | – | – | – | – | – | 400 nM | 82% | 95% | 5% | 47%
5 | 547843 (antisense e[5mC]*eA*k[5mC]*dT*dT*dA*dT*dT*dT*dG*dA*dT*dG*kA*k[5mC]*e[5mC]) [compound 547843] | – | – | – | – | – | – | – | 83% | – | 83% | – | – | – | 400 nM | 80% | 91% | 0% | 52%
6 | 548486 (e[5mC]*eG*kT*dG*dG*dT*dT*dA*dG*d[5mC]*d[5mC]*dT*dG*kA*k[5mC]*eA; antisense) [compound 548486] | – | – | – | – | – | – | – | – | – | – | – | 68% | – | 400 nM | 77% | 92% | 20% | 48%
7 | 547922 (eT*eG*kG*dA*dG*dT*dG*dA*dG*dA*dA*d[5mC]*d[5mC]*k[5mC]*kT*eG; antisense) [compound 547922] | – | – | – | 79% | – | – | – | – | – | – | – | – | – | – | 81% | 92% | 67% | 75%
8 | 548197 (eT*eG*k[5mC]*dT*dT*dG*dG*d[5mC]*dT*dT*d[5mC]*dA*dA*kT*kA*eT; antisense) [compound 548197] | – | 68% | – | – | – | – | – | – | – | – | – | – | – | 800 nM | 51% | 75% | 33% | 37%
9 | 548278 (antisense eG*eG*kT*dT*d[5mC]*d[5mC]*d[5mC]*dT*dA*dG*d[5mC]*dG*dG*kT*k[5mC]*e[5mC]) [compound 548278] | – | – | 74% | – | – | – | – | – | – | – | – | – | – | 400 nM | 78% | 93% | 3% | 59%
10 | 547862 (antisense eG*eA*k[5mC]*dT*d[5mC]*d[5mC]*dT*d[5mC]*dT*d[5mC]*dA*dT*dA*kT*k[5mC]*eA) [compound 547862] | – | – | – | – | – | – | – | 22% | – | 88% | – | – | – | 300 nM | 69% | – | 26% | 71%
11 | 548220 (eG*e[5mC]*kA*dG*dA*dA*dA*dT*d[5mC]*d[5mC]*dT*dG*dT*kG*k[5mC]*eA; antisense) [compound 548220] | – | 69% | – | – | – | – | – | – | – | – | – | – | – | > 3000 nM | 0% | 6% | 0% | 0%
12 | 548265 (antisense e[5mC]*e[5mC]*kT*d[5mC]*dT*dT*dG*dA*dT*dT*dT*dG*dG*kG*k[5mC]*eA) [compound 548265] | – | – | 85% | – | – | – | – | – | – | – | – | – | – | – | 78% | 67% | 47% | 69%
13 | 548125 (antisense e[5mC]*eT*kA*dG*dA*d[5mC]*dT*d[5mC]*dT*dG*dG*dA*d[5mC]*kT*kG*e[5mC]) [compound 548125] | – | – | – | – | – | – | 89% | – | – | – | – | – | – | 300 nM | 81% | 73% | 33% | 50%
14 | 548109 (antisense eG*e[5mC]*kA*dT*d[5mC]*dT*dG*dA*dG*d[5mC]*dT*dT*dT*kT*k[5mC]*e[5mC]) [compound 548109] | – | – | – | – | – | – | 77% | – | – | – | – | – | – | – | 79% | 85% | 50% | 92%
15 | 548348 (antisense eT*eG*kA*dG*dT*dG*dA*dT*dG*d[5mC]*d[5mC]*dT*dT*k[5mC]*k[5mC]*eA) [compound 548348] | – | – | – | – | – | – | – | – | – | – | 82% | – | – | 400 nM | 67% | 91% | 19% | 46%
16 | 547835 (e[5mC]*e[5mC]*kA*dG*dA*dA*dA*d[5mC]*dT*dG*d[5mC]*dA*d[5mC]*k[5mC]*kT*eG; antisense) [compound 547835] | – | – | – | – | – | – | – | – | 81% | – | – | – | – | 900 nM | 53% | 79% | 44% | 27%
